The target of one assay is T1, Wee1 kinase domain (Homo sapiens, UniProt P30291).
T1 construct: Wee1 kinase domain was purchased from Carna (catalog #05-177); purchased Carna 05-177
T1 sequence (P30291 299-569 limits assumed): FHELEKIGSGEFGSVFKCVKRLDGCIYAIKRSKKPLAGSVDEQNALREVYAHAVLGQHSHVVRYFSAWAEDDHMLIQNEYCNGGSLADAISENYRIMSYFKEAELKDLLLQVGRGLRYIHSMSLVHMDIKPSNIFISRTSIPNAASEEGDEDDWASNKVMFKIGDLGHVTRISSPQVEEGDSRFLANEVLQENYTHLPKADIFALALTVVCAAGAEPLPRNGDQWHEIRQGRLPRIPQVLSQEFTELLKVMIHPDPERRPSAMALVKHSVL
As to the kind of experiment: Wee1 Kinase Biochemical Assay (ADP-Glo). The note with it: 1 nM Wee1 enzyme, 15 uM ATP, 4 hours at 25° C. Here is the method: Wee1 Kinase Biochemical Assay Protocol
Wee1 kinase domain was purchased from Carna (catalog #05-177). Wee1 kinase activity was determined with Poly(Lys,Tyr 4:1) hydrobromide as a substrate (Sigma-Aldrich) and by measuring ADP production using the ADP-Glo Kinase Assay kit (Promega) following the manufacturer's instructions. The kinase reaction was performed using the following conditions:
Buffer: 40 mM Tris-HCl, 20 mM magnesium chloride, supplemented with 0.1 mg/mL bovine serum albumin and 2 mM DTT. The final reaction mix contained 1 nM Wee1 enzyme, 15 uM ATP, and 2 ng/mL Poly(Lys,Tyr 4:1) hydrobromide substrate. The reaction time was 4 hours at 25° C.
The ADP-Glo signal was measured using the Envision plate reader and the percentage inhibition of kinase activity calculated for each inhibitor tested. Percent inhibition of Wee1 kinase activity was calculated based on the following formula.
[formula] • SSample: the signal of compounds • SHigh Ctrl: the signal of high control (DMSO) • SLow Ctrl: the signal of low control (positive control Wee1 inhibitor at saturating concentration)
`CN1CCN(c2ccc(Nc3ncc4c(n3)N(c3cccnn3)[C@@H]3CC(C)(C)OC[C@]43C)cc2)CC1` (single isomer, unassigned) [Example 828] gave an IC50 of less than 10 nM.

The assay is the same for the next values; noted with them: Wee1 kinase domain, 15 uM ATP, ADP-Glo.
The compound `CNCc1cccc(N2c3nc(Nc4ccc([C@@H]5CC(=O)N(C)C5)cc4)ncc3[C@]3(C)COC(C)(C)C[C@H]23)n1` (single isomer, unassigned) [Example 70] registered an IC50 of 10 to 100 nM. In the case of `C[C@H]1COC(=O)N1c1cccc(N2c3nc(Nc4ccc(N5C[C@@H]6C[C@H]5CN6C)c(F)c4)ncc3[C@]3(C)COC(C)(C)C[C@H]23)n1` (single isomer, unassigned) [Example 292], the IC50 was 10 to 100 nM. Still for that read-out and setting: next, `CNCc1cccc(N2c3nc(Nc4ccccc4)ncc3[C@]3(C)COC(C)(C)C[C@H]23)n1` (single isomer, unassigned) [Example 46]: 10 to 100 nM; `CN1CCC(n2ccc(Nc3ncc4c(n3)N(c3cccc(N=S(C)(C)=O)n3)[C@@H]3CC(C)(C)OC[C@]43C)n2)CC1` (single isomer, unassigned) [Example 229]: 10 to 100 nM; `CNCc1cccc(N2c3nc(Nc4ccc([C@@H]5CCC(=O)N5C)cc4)ncc3[C@]3(C)COC(C)(C)C[C@H]23)n1` (single isomer, unassigned) [Example 51]: no less than 1000 nM.

The compound `CNC(=O)c1ccc(Nc2ncc3c(n2)N(c2cccc(N=S(C)(C)=O)n2)[C@H]2CC(C)(C)OC[C@@]32C)cc1` (single isomer, unassigned) [Example 116] registered an IC50 of 100 to 1000 nM. Still for that read-out and setting: then `CNCc1cccc(N2c3nc(Nc4ccc([C@@H]5CCC(=O)N5C)nc4)ncc3[C@]3(C)COC(C)(C)C[C@H]23)n1` (single isomer, unassigned) [Example 95], with no less than 1000 nM; and `CNCc1cccc(N2c3nc(Nc4ccc(N5C6CCC5COC6)c(C)c4)ncc3[C@]3(C)COC(C)(C)C[C@H]23)n1` (single isomer, unassigned) [Example 86], with 100 to 1000 nM; and `CNCc1cccc(N2c3nc(Nc4ccc(N5C[C@H]6C[C@@H]5CO6)cc4)ncc3[C@]3(C)COC(C)(C)C[C@H]23)n1` (single isomer, unassigned) [Example 43], with 10 to 100 nM.

Consider `C[C@H]1COC(=O)N1c1cccc(N2c3nc(Nc4cnn(C5CCN(C)CC5)c4)ncc3[C@]3(C)COC(C)(C)C[C@H]23)n1` (single isomer, unassigned) [Example 242], for which the IC50 fell in the range of 10 to 100 nM. Consider `CN1CCN(c2ccc(Nc3ncc4c(n3)N(c3cccc(N=S(C)(C)=O)n3)[C@H]3CC(C)(C)OC[C@@]43C)cc2)CC1` [Example 99, dimethyl((6-((4bS,8aS)-4b,7,7-trimethyl-2-((4-(4-methylpiperazin-1-yl)phenyl)amino)-4b,7,8,8a-tetrahydropyrano[3′,4′:4,5]pyrrolo[2,3-d]pyrimidin-9(5H)-yl)pyridin-2-yl)imino)-16-sulfanone], for which the IC50 was 100 to 1000 nM. Compound `CNCc1cccc(N2c3nc(Nc4ccc5c(c4)C(=O)N(C)C5)ncc3[C@]3(C)COC(C)(C)C[C@H]23)n1` (single isomer, unassigned) [Example 31] had an IC50 of 100 to 1000 nM. The same measure, in the same setting: then `CN1CCC(c2ccc(Nc3ncc4c(n3)N(c3cccc(N=S(C)(C)=O)n3)[C@@H]3CC(C)(C)OC[C@]43C)cc2)CC1` (single isomer, unassigned) [Example 111], with 10 to 100 nM. On the same count and under the same terms, then `CC1(C)C[C@H]2N(c3cccc(N=S(C)(C)=O)n3)c3nc(Nc4ccc5nccn5n4)ncc3[C@@]2(C)CO1` [Example 361, ((6-((4bR,8aR)-2-(imidazo[1,2-b]pyridazin-6-ylamino)-4b,7,7-trimethyl-4b,7,8,8a-tetrahydropyrano[3′,4′:4,5]pyrrolo[2,3-d]pyrimidin-9(5H)-yl)pyridin-2-yl)imino)dimethyl-l6-sulfanone], with less than 10 nM; and `CC1(C)C[C@H]2N(c3cccc(N=S(C)(C)=O)n3)c3nc(Nc4ccc([C@@]5(C)CCNC5)cc4)ncc3[C@@]2(C)CO1` (single isomer, unassigned) [Example 174], with 10 to 100 nM.

The same assay, now with this note: class symbols; 1 nM Wee1 enzyme, 15 uM ATP, 4 hours at 25° C.
Consider `CC1(C)C[C@H]2N(c3cccc(N=S(C)(C)=O)n3)c3nc(NC(=O)c4cccnc4)ncc3[C@@]2(C)CO1` (single isomer, unassigned) [Example 405], for which the IC50 lay in the range of 10 to 100 nM. For `CN1CC[C@H](c2ccc(Nc3ncc4c(n3)N(c3cccc(N5CCOC5=O)n3)[C@H]3CC(C)(C)OC[C@@]43C)cc2)C1` (single isomer, unassigned) [Example 603], the IC50 lay in the range of 10 to 100 nM. In turn, `CN1C[C@@H]2C[C@H]1CN2c1ccc(Nc2ncc3c(n2)N(c2cccc(C4(O)CC4)n2)[C@H]2CC(C)(C)OC[C@@]32C)cc1` [Example 645, 1-(6-((4bS,8aS)-4b,7,7-trimethyl-2-((4-((1S,4S)-5-methyl-2,5-diazabicyclo[2.2.1]heptan-2-yl)phenyl)amino)-4b,7,8,8a-tetrahydropyrano[3′,4′:4,5]pyrrolo[2,3-d]pyrimidin-9(5H)-yl)pyridin-2-yl)cyclopropan-1-ol] came in with an IC50 of 100 to 1000 nM. The same measure, in the same setting: then `CNc1ncc2c(n1)N(c1cccc(N=S(C)(C)=O)n1)[C@@H]1CC(C)(C)OC[C@]21C` (single isomer, unassigned) [Example 723], with 10 to 100 nM; and `CC1(C)C[C@@H]2N(c3cccc(N4CCOC4=O)n3)c3nc(Nc4ccc([C@H]5CNCC5(F)F)cc4)ncc3[C@]2(C)CO1` [Example 683, 3-(6-((4bS,8aS)-2-((4-((S)-4,4-difluoropyrrolidin-3-yl)phenyl)amino)-4b,7,7-trimethyl-4b,7,8,8a-tetrahydropyrano[3′,4′:4,5]pyrrolo[2,3-d]pyrimidin-9(5H)-yl)pyridin-2-yl)oxazolidin-2-one], with 100 to 1000 nM. Same read-out and setting: next, `CN1CC(c2ccc(Nc3ncc4c(n3)N(c3cccc(N5CCCC5=O)n3)[C@H]3CC(C)(C)OC[C@@]43C)cc2)C1` [Example 697, 1-(6-((4bS,8aS)-4b,7,7-trimethyl-2-((4-(1-methylazetidin-3-yl)phenyl)amino)-4b,7,8,8a-tetrahydropyrano[3′,4′:4,5]pyrrolo[2,3-d]pyrimidin-9(5H)-yl)pyridin-2-yl)pyrrolidin-2-one]: 10 to 100 nM; `C[C@H]1CCC(=O)N1c1cccc(N2c3nc(Nc4ccc(N5CCN(C)CC5)cc4)ncc3[C@]3(C)COC(C)(C)C[C@H]23)n1` (single isomer, unassigned) [Example 582]: 100 to 1000 nM; `CN1C[C@H]2C[C@@H]1CN2c1ccc(Nc2ncc3c(n2)N(c2cccc(N4CCCC4=O)n2)[C@H]2CC(C)(C)OC[C@@]32C)cc1F` [Example 639, 1-(6-((4bS,8aS)-2-((3-fluoro-4-((1R,4R)-5-methyl-2,5-diazabicyclo[2.2.1]heptan-2-yl)phenyl)amino)-4b,7,7-trimethyl-4b,7,8,8a-tetrahydropyrano[3′,4′:4,5]pyrrolo[2,3-d]pyrimidin-9(5H)-yl)pyridin-2-yl)pyrrolidin-2-one]: 10 to 100 nM. Same read-out and setting: next, `Cc1cc(Nc2ncc3c(n2)N(c2cccc(C(=O)N(C)C)n2)[C@H]2CC(C)(C)OC[C@@]32C)ccc1C1CCN(C)CC1` (single isomer, unassigned) [Example 584]: 100 to 1000 nM; `CN1C[C@@H]2C[C@H]1CN2c1ccc(Nc2ncc3c(n2)N(c2cccc(N4CCOC4=O)n2)[C@H]2CC(C)(C)OC[C@@]32C)cc1` (single isomer, unassigned) [Example 594]: 100 to 1000 nM. `CC1(C)C[C@@H]2N(c3cccc(N4CCCC4=O)n3)c3nc(Nc4ccc(O[C@@H]5CCNC5)cc4)ncc3[C@]2(C)CO1` [Example 617, 1-(6-((4bS,8aS)-4b,7,7-trimethyl-2-((4-(((R)-pyrrolidin-3-yl)oxy)phenyl)amino)-4b,7,8,8a-tetrahydropyrano[3′,4′:4,5]pyrrolo[2,3-d]pyrimidin-9(5H)-yl)pyridin-2-yl)pyrrolidin-2-one] yielded a half-maximal inhibitory concentration (IC50) of 100 to 1000 nM. The same measure, in the same setting: then `CN1CC[C@H](Oc2ccc(Nc3ncc4c(n3)N(c3cccc(N5CCOC5=O)n3)[C@H]3CC(C)(C)OC[C@@]43C)cc2)C1` [Example 614, 3-(6-((4bS,8aS)-4b,7,7-trimethyl-2-((4-(((S)-1-methylpyrrolidin-3-yl)oxy)phenyl)amino)-4b,7,8,8a-tetrahydropyrano[3′,4′:4,5]pyrrolo[2,3-d]pyrimidin-9(5H)-yl)pyridin-2-yl)oxazolidin-2-one], with 100 to 1000 nM.

`CN[C@@H]1CCc2ccc(N3c4nc(Nc5ccc(N6CCOCC6)cc5)ncc4[C@]4(C)COC(C)(C)C[C@H]34)nc21` (single isomer, unassigned) [Example 554]: the IC50 is 100 to 1000 nM. The same measure, in the same setting: next, `CN1C[C@@H]2C[C@H]1CN2c1ccc(Nc2ncc3c(n2)N(c2cccc(N4C(=O)OCC4(C)C)n2)[C@@H]2CC(C)(C)OC[C@]32C)cc1` [Example 796, 4,4-dimethyl-3-(6-((4bR,8aR)-4b,7,7-trimethyl-2-((4-((1S,4S)-5-methyl-2,5-diazabicyclo[2.2.1]heptan-2-yl)phenyl)amino)-4b,7,8,8a-tetrahydropyrano[3′,4′:4,5]pyrrolo[2,3-d]pyrimidin-9(5H)-yl)pyridin-2-yl)oxazolidin-2-one]: less than 10 nM; `CC1(C)C[C@@H]2N(c3ccc4c(n3)[C@](C)(N)CC4)c3nc(Nc4ccc(N5CCOCC5)cc4)ncc3[C@]2(C)CO1` (single isomer, unassigned) [Example 563]: 100 to 1000 nM.

For the origin of these results see patent publication US20260166039A1 (SCHRÖDINGER, INC., priority 2022, published 2026).
